Data as given in US20240251792A1, “WEED CONTROL METHOD” (SYNGENTA CROP PROTECTION AG, priority 2021, published 2024).
Read-outs that look alike come from different tables or passages of the source.

Experiments:
Assay type in all cases: in vivo
IPOHE = experiment: Pre-emergence biological efficacy (Table 3); conditions: 1000 g/ha, after 13 days; for pest or weed control at 1000 g/ha: Ipomoea hederacea, 312 h, read-out: evaluation (100=total damage to plant; 0=no damage to plant)
Method in brief: (§1)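 Pre-emergence spray applied one day post-sowing; aqueous solution from 50 g/l AMA-based formulation in 0.2% Genapol X080. Evaluation at 13 days, 0 = no damage, 100 = total damage.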

AMARE [1] = experiment: Pre-emergence biological efficacy (Table 3); conditions: 1000 g/ha, after 13 days; for pest or weed control at 1000 g/ha: Amaranthus retroflexus, 312 h, read-out: evaluation (100=total damage to plant; 0=no damage to plant)
Method in brief: as §1

AMAPA = experiment: Pre-emergence biological efficacy (Table 3); conditions: 312 h, 1000 g/ha, after 13 days, read-out: evaluation (100=total damage to plant; 0=no damage to plant)
Method in brief: as §1

SETFA = experiment: Pre-emergence biological efficacy (Table 3); conditions: Setaria faberi, 312 h, 1000 g/ha, after 13 days, read-out: evaluation (100=total damage to plant; 0=no damage to plant)
Method in brief: as §1

ECHCG = experiment: Pre-emergence biological efficacy (Table 3); conditions: 1000 g/ha, after 13 days; for pest or weed control at 1000 g/ha: Echinochloa crus-galli, 312 h, read-out: evaluation (100=total damage to plant; 0=no damage to plant)
Method in brief: as §1

ZEAMX = experiment: Pre-emergence biological efficacy (Table 3); conditions: 1000 g/ha, after 13 days; for plant injury at 1000 g/ha: 312 h, read-out: evaluation (100=total damage to plant; 0=no damage to plant)
Method in brief: as §1

AMARE [2] = experiment: Biological efficacy, pre-emergence glasshouse test (Table 2); conditions: 1000 g/ha, after 12 days
Description: (§2) Seeds of a variety of test species were shown in unsterilised compost in small pots. After cultivation for one day (pre-emergence) or seven days (post-emergence) in controlled conditions in the glasshouse (at 24/16° C., day/night; 14 hours light; 65% humidity) the plants were sprayed with 1 mg of the active ingredient, formulated in 466 μl of a acetone/water/Tween 20 (49.75:49.75:0.5) solution, which is equivalent to 1000 g/ha. Once the foliage was dry, the pots were kept in the glasshouse (at 24/16° C., day/night; 14 hours light; 65% humidity), and were watered twice daily. After 12 days the test was evaluated and scored (100=total damage to plant, 0=no damage to plant).

LOLPE [3] = experiment: as above; conditions: 1000 g/ha, after 12 days
Description: as §2

DIGSA [4] = experiment: as above; conditions: 1000 g/ha, after 12 days
Description: as §2

STEME [5] = experiment: as above; conditions: 1000 g/ha, after 12 days
Description: as §2

weeds and/or crops = experiment: Post-emergence biological efficacy (Table 4); conditions: 1000 g/ha, evaluated after 13 days; for pest or weed control at 1000 g/ha: 312 h
Method in brief: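 Weeds and crops were grown 14 days in a glasshouse, then sprayed post-emergence with compound formulated in acetone/F50 and diluted in 0.2% Genapol X080 to the final dose. Damage was scored after 13 days on a 0–100 scale, where 100 is total damage.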

ABUTH = experiment: Pre-emergence biological efficacy (Table 3); conditions: after 13 days; for evaluation (100=total damage to plant; 0=no damage to plant): 1000 g/ha
Method in brief: as §1

STEME [6] = experiment: Pre-emergence biological efficacy (Table 3); conditions: after 13 days; for evaluation (100=total damage to plant; 0=no damage to plant): 1000 g/ha
Method in brief: as §1

AMARE [7] = experiment: Biological efficacy, post-emergence glasshouse test (Table 2); conditions: 1000 g/ha, after 12 days
Description: as §2

LOLPE [8] = experiment: as above; conditions: 1000 g/ha, after 12 days
Description: as §2

DIGSA [9] = experiment: as above; conditions: 1000 g/ha, after 12 days
Description: as §2

STEME [10] = experiment: as above; conditions: 1000 g/ha, after 12 days
Description: as §2

SMILES	pest or weed control at 1000 g/ha (IPOHE) [%]	pest or weed control at 1000 g/ha (AMARE [1]) [%]	pest or weed control at 1000 g/ha (ECHCG) [%]	plant injury at 1000 g/ha (ZEAMX) [%]	score (100=total damage to plant, 0=no damage to plant) (AMARE [2])	score (100=total damage to plant, 0=no damage to plant) (LOLPE [3])	score (100=total damage to plant, 0=no damage to plant) (DIGSA [4])	score (100=total damage to plant, 0=no damage to plant) (STEME [5])	score (100=total damage to plant, 0=no damage to plant) (AMARE [7])	score (100=total damage to plant, 0=no damage to plant) (LOLPE [8])	score (100=total damage to plant, 0=no damage to plant) (DIGSA [9])	score (100=total damage to plant, 0=no damage to plant) (STEME [10])	damage to plant ABUTH (100=total damage; 0=no damage) (weeds and/or crops; ABUTH)	damage to plant AMARE (100=total damage; 0=no damage) (weeds and/or crops; AMARE)	damage to plant IPOHE (100=total damage; 0=no damage) (weeds and/or crops; IPOHE)	damage to plant STEME (100=total damage; 0=no damage) (weeds and/or crops; STEME)	damage to plant ZEAMX (100=total damage; 0=no damage) (weeds and/or crops; ZEAMX)	evaluation (100=total damage to plant; 0=no damage to plant) (IPOHE)	evaluation (100=total damage to plant; 0=no damage to plant) (AMARE [1])	evaluation (100=total damage to plant; 0=no damage to plant) (ABUTH)	other results
COCc1c(Cl)cccc1C(F)(F)C(=O)O [Compound 1-436, 2-[3-Chloro-2-(methoxymethyl)phenyl]-2,2-difluoro-acetic acid]	40	30	0	0	–	–	–	–	–	–	–	–	–	–	–	–	–	–	–	–	pest or weed control at 1000 g/ha (AMAPA): 40%; pest or weed control at 1000 g/ha (SETFA): 20%
CCOC(=O)C(F)(F)c1cccc2cccc(C(F)(F)C(=O)OCC)c12 [Compound 3-419, Ethyl 2-[8-(2-ethoxy-1,1-difluoro-2-oxo-ethyl)-1-naphthyl]-2,2-difluoro-acetate]	10	20	0	0	80	0	0	60	80	0	40	70	–	–	–	–	–	–	–	–	pest or weed control at 1000 g/ha (weeds and/or crops; STEME, read-out: damage to plant STEME (100=total damage; 0=no damage)): 100%; pest or weed control at 1000 g/ha (weeds and/or crops; ZEAMX, read-out: damage to plant ZEAMX (100=total damage; 0=no damage)): 0%; pest or weed control at 1000 g/ha (weeds and/or crops; Abutilon theophrasti, ABUTH, read-out: damage to plant ABUTH (100=total damage; 0=no damage)): 80%; pest or weed control at 1000 g/ha (weeds and/or crops; Amaranthus retroflexus, AMARE, read-out: damage to plant AMARE (100=total damage; 0=no damage)): 20%; pest or weed control at 1000 g/ha (weeds and/or crops; Echinochloa crus-galli, ECHCG, read-out: damage to plant ECHCG (100=total damage; 0=no damage)): 0%; pest or weed control at 1000 g/ha (weeds and/or crops; Ipomoea hederacea, IPOHE, read-out: damage to plant IPOHE (100=total damage; 0=no damage)): 70%; pest or weed control at 1000 g/ha (ABUTH; Abutilon theophrasti, 312 h, read-out: evaluation (100=total damage to plant; 0=no damage to plant)): 30%; pest or weed control at 1000 g/ha (STEME [6]; 312 h, read-out: evaluation (100=total damage to plant; 0=no damage to plant)): 40%
COc1cc(F)c(C(F)(F)C(=O)O)cc1Cl.N [Compound 7-31, Ammonium;2-(5-chloro-2-fluoro-4-methoxy-phenyl)-2,2-difluoro-acetate]	–	–	–	–	0	0	0	0	100	0	0	0	0	0	0	0	20	0	0	0	evaluation (100=total damage to plant; 0=no damage to plant) (ZEAMX): 0; evaluation (100=total damage to plant; 0=no damage to plant) (STEME [6]): 0
N.N#Cc1cccc(C(F)(F)C(=O)O)c1Cl [Compound 7-231, Ammonium;2-(2-chloro-3-cyano-phenyl)-2,2-difluoro-acetate]	–	–	–	–	90	40	80	100	90	0	70	80	90	90	80	100	30	80	90	90	damage to plant ECHCG (100=total damage; 0=no damage) (weeds and/or crops; ECHCG): 10; evaluation (100=total damage to plant; 0=no damage to plant) (ECHCG): 10; evaluation (100=total damage to plant; 0=no damage to plant) (ZEAMX): 50; evaluation (100=total damage to plant; 0=no damage to plant) (STEME [6]): 100
